Experimental data taken from PubChem BioAssay AID2060506 (Molecular Pharmacology Branch, DTP, NCI, 2025).

Tested on: 598228-144-R-J1-PDC complex spheroid viability
Assay: Anticancer human tumor 598228-144-R-J1-PDC patient-derived serous endometrial adenocarcinoma cell line growth inhibition [GQUAD]
Details: for IC50: curve of first compound; for viability, T/C: stronger effect = lower value; active means viability on the fitted dose curve at most 10% of control; inactive means the rest
How it was run: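 Tumor cells were grown as complex spheroids with HUVEC endothelial cells and mesenchymal stem cells as stroma. G-quadruplex stabilizers were combined with targeted agents over half-log dilutions from near the clinical Cmax, or from 10 microM.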

[1] = second compound 0.0316 µM, first compound 0.0316 µM
[2] = second compound 0.0316 µM, first compound 0.1 µM
[3] = second compound 0.0316 µM, first compound 0.316 µM
[4] = second compound 0.0316 µM, first compound 1 µM
[5] = second compound 0.0316 µM, first compound 3.16 µM
[6] = second compound 0.0316 µM, first compound 10 µM
[7] = second compound 0.1 µM, first compound 0.0316 µM
[8] = second compound 0.1 µM, first compound 0.1 µM
[9] = second compound 0.1 µM, first compound 0.316 µM
[10] = second compound 0.1 µM, first compound 1 µM
[11] = second compound 0.1 µM, first compound 3.16 µM
[12] = second compound 0.1 µM, first compound 10 µM
[13] = second compound 0.316 µM, first compound 0.0316 µM
[14] = second compound 0.316 µM, first compound 0.1 µM
[15] = second compound 0.316 µM, first compound 0.316 µM
[16] = second compound 0.316 µM, first compound 1 µM
[17] = second compound 0.316 µM, first compound 3.16 µM
[18] = second compound 0.316 µM, first compound 10 µM
[19] = second compound 1 µM, first compound 0.0316 µM
[20] = second compound 1 µM, first compound 0.1 µM
[21] = second compound 1 µM, first compound 0.316 µM
[22] = second compound 1 µM, first compound 1 µM
[23] = second compound 1 µM, first compound 3.16 µM
[24] = second compound 1 µM, first compound 10 µM
[25] = second compound 3.16 µM, first compound 0.0316 µM
[26] = second compound 3.16 µM, first compound 0.1 µM
[27] = second compound 3.16 µM, first compound 0.316 µM
[28] = second compound 3.16 µM, first compound 1 µM
[29] = second compound 3.16 µM, first compound 3.16 µM
[30] = second compound 3.16 µM, first compound 10 µM
[31] = second compound 10 µM, first compound 0.0316 µM
[32] = second compound 10 µM, first compound 0.1 µM
[33] = second compound 10 µM, first compound 0.316 µM
[34] = second compound 10 µM, first compound 1 µM
[35] = second compound 10 µM, first compound 3.16 µM
[36] = second compound 10 µM, first compound 10 µM
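Further: spheroids exposed to the agents for one week before reading.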
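Wherever viability, T/C is given: percent of vehicle DMSO control viability so 100% = untreated growth.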

COc1ncnc(C2CC2)c1-c1ncc2cnn(Cc3ccc(-c4nc(C(F)(F)F)cn4C(C)C)cc3)c2n1 + CN(C)c1ccc(Nc2c3ccc(NC(=O)CCN4CCCC4)cc3nc3cc(NC(=O)CCN4CCCC4)ccc23)cc1
inactive: viability, T/C [1] 91.3% | viability, T/C [2] 111% | viability, T/C [3] 95.9% | viability, T/C [4] 92.2% | viability, T/C [5] 111% | viability, T/C [6] 89.9% | viability, T/C [7] 105% | viability, T/C [8] 97.9% | viability, T/C [9] 101% | viability, T/C [10] 85.5% | viability, T/C [11] 102% | viability, T/C [12] 110% | viability, T/C [13] 112% | viability, T/C [14] 115% | viability, T/C [15] 99% | viability, T/C [16] 88.7% | viability, T/C [17] 120% | viability, T/C [18] 110% | viability, T/C [19] 112% | viability, T/C [20] 90.6% | viability, T/C [21] 102% | viability, T/C [22] 75.1% | viability, T/C [23] 95.2% | viability, T/C [24] 90.5% | viability, T/C [25] 89.8% | viability, T/C [26] 108% | viability, T/C [27] 94.3% | viability, T/C [28] 105% | viability, T/C [29] 90.9% | viability, T/C [30] 91.5% | viability, T/C [31] 84% | viability, T/C [32] 67.8% | viability, T/C [33] 72.2% | viability, T/C [34] 77.1% | viability, T/C [35] 71.1% | viability, T/C [36] 51.5%
> 10000 nM: IC50 (second compound 0.0316 µM) | IC50 (second compound 0.1 µM) | IC50 (second compound 0.316 µM) | IC50 (second compound 1 µM) | IC50 (second compound 3.16 µM) | IC50 (second compound 10 µM)

CCCS(=O)(=O)Nc1ccc(F)c(C(=O)c2c[nH]c3ncc(-c4ccc(Cl)cc4)cc23)c1F + Cc1cnc(CNC(=O)c2c(=O)c3ccc(N4CCCN(C)CC4)nc3n3c2sc2ccccc23)cn1
< 31.6 nM: IC50 (second compound 10 µM)
6450 nM: IC50 (second compound 0.1 µM)
5230 nM: IC50 (second compound 1 µM)
active: viability, T/C [30] 0.38%
3620 nM: IC50 (second compound 3.16 µM)
4940 nM: IC50 (second compound 0.316 µM)
inactive: viability, T/C [1] 92.8% | viability, T/C [2] 96% | viability, T/C [3] 113% | viability, T/C [4] 92.5% | viability, T/C [5] 109% | viability, T/C [6] 26.9% | viability, T/C [7] 77.7% | viability, T/C [8] 81.5% | viability, T/C [9] 60.7% | viability, T/C [10] 65.6% | viability, T/C [11] 92.2% | viability, T/C [12] 34.4% | viability, T/C [13] 59.4% | viability, T/C [14] 82% | viability, T/C [15] 74% | viability, T/C [16] 62.3% | viability, T/C [17] 65.7% | viability, T/C [18] 27.3% | viability, T/C [19] 64.5% | viability, T/C [20] 70.7% | viability, T/C [21] 62.3% | viability, T/C [22] 65.6% | viability, T/C [23] 73.8% | viability, T/C [24] 27.7% | viability, T/C [25] 59.9% | viability, T/C [26] 47.5% | viability, T/C [27] 48.4% | viability, T/C [28] 61.5% | viability, T/C [29] 65.6% | viability, T/C [31] 33.5% | viability, T/C [32] 32.5% | viability, T/C [33] 18.7% | viability, T/C [34] 24.7% | viability, T/C [35] 40.9% | viability, T/C [36] 0.26%
6970 nM: IC50 (second compound 0.0316 µM)

CC1COCCN1c1cc(C2(S(C)(=N)=O)CC2)nc(-c2ccnc3[nH]ccc23)n1 (stereo not drawn) + Cc1[nH]c2ccc(F)cc2c1-c1nc2c3cccnc3c3ncccc3c2[nH]1
inactive: viability, T/C [1] 114% | viability, T/C [2] 108% | viability, T/C [3] 89.2% | viability, T/C [4] 69.9% | viability, T/C [5] 73% | viability, T/C [6] 50% | viability, T/C [7] 106% | viability, T/C [8] 100% | viability, T/C [9] 97.7% | viability, T/C [10] 87.1% | viability, T/C [11] 56.9% | viability, T/C [12] 40.5% | viability, T/C [13] 97.3% | viability, T/C [14] 94.4% | viability, T/C [15] 69% | viability, T/C [16] 47% | viability, T/C [17] 52.9% | viability, T/C [18] 43.3% | viability, T/C [19] 58% | viability, T/C [20] 59.7% | viability, T/C [21] 58.9% | viability, T/C [22] 40.5% | viability, T/C [23] 45.1% | viability, T/C [24] 34.5% | viability, T/C [25] 36.9% | viability, T/C [26] 42.2% | viability, T/C [27] 39.2% | viability, T/C [28] 36.8% | viability, T/C [29] 39.7% | viability, T/C [30] 35.6% | viability, T/C [31] 60.3% | viability, T/C [32] 53.8% | viability, T/C [33] 59.4% | viability, T/C [34] 43.1% | viability, T/C [35] 44.6% | viability, T/C [36] 41.5%
> 10000 nM: IC50 (second compound 0.0316 µM)
5230 nM: IC50 (second compound 0.1 µM)
< 31.6 nM: IC50 (second compound 3.16 µM)
551 nM: IC50 (second compound 1 µM)
629 nM: IC50 (second compound 10 µM)
914 nM: IC50 (second compound 0.316 µM)

Cc1[nH]c2ccccc2c1CCNCc1ccc(/C=C/C(=O)NO)cc1 + CN(C)c1ccc(Nc2c3ccc(NC(=O)CCN4CCCC4)cc3nc3cc(NC(=O)CCN4CCCC4)ccc23)cc1
44.3 nM: IC50 (second compound 3.16 µM)
54.1 nM: IC50 (second compound 0.316 µM)
38.7 nM: IC50 (second compound 0.0316 µM)
active: viability, T/C [3] 1.08% | viability, T/C [9] 0.89% | viability, T/C [15] 0.69% | viability, T/C [21] 2.25% | viability, T/C [27] 0.99% | viability, T/C (second compound 10 µM, first compound 0.0999 µM) 8.01% | viability, T/C [33] 0.44%
inactive: viability, T/C (second compound 0.0316 µM, first compound 0.000999 µM) 113% | viability, T/C (second compound 0.0316 µM, first compound 0.00316 µM) 94.7% | viability, T/C (second compound 0.0316 µM, first compound 0.00999 µM) 103% | viability, T/C [1] 46.6% | viability, T/C (second compound 0.0316 µM, first compound 0.0999 µM) 29.1% | viability, T/C (second compound 0.1 µM, first compound 0.000999 µM) 91.7% | viability, T/C (second compound 0.1 µM, first compound 0.00316 µM) 107% | viability, T/C (second compound 0.1 µM, first compound 0.00999 µM) 86% | viability, T/C [7] 64.7% | viability, T/C (second compound 0.1 µM, first compound 0.0999 µM) 25.8% | viability, T/C (second compound 0.316 µM, first compound 0.000999 µM) 114% | viability, T/C (second compound 0.316 µM, first compound 0.00316 µM) 96.8% | viability, T/C (second compound 0.316 µM, first compound 0.00999 µM) 95.7% | viability, T/C [13] 70.7% | viability, T/C (second compound 0.316 µM, first compound 0.0999 µM) 26.9% | viability, T/C (second compound 1 µM, first compound 0.000999 µM) 96.9% | viability, T/C (second compound 1 µM, first compound 0.00316 µM) 120% | viability, T/C (second compound 1 µM, first compound 0.00999 µM) 91.2% | viability, T/C [19] 59.1% | viability, T/C (second compound 1 µM, first compound 0.0999 µM) 23.5% | viability, T/C (second compound 3.16 µM, first compound 0.000999 µM) 99.9% | viability, T/C (second compound 3.16 µM, first compound 0.00316 µM) 103% | viability, T/C (second compound 3.16 µM, first compound 0.00999 µM) 87.9% | viability, T/C [25] 66.7% | viability, T/C (second compound 3.16 µM, first compound 0.0999 µM) 13.9% | viability, T/C (second compound 10 µM, first compound 0.000999 µM) 82.3% | viability, T/C (second compound 10 µM, first compound 0.00316 µM) 102% | viability, T/C (second compound 10 µM, first compound 0.00999 µM) 70.5% | viability, T/C [31] 33.6%
19.6 nM: IC50 (second compound 10 µM)
43 nM: IC50 (second compound 1 µM)
48.5 nM: IC50 (second compound 0.1 µM)
